The text below walks through data of patent US11306063B2, “Heterocyclic naphthoquinones derivatives for use in the treatment of cancers including Cushing disease” (Commissariat a l'Energie Atomique et aux Energies …, priority 2016, dated 2022).

The structures appear in SMILES notation.

Data set [1] has as its system all cancerous cells tested. The data set is described as follows: Cytotoxicity assay, summary over all cancerous cells tested. The class given is cell-based. To be noted: Homo sapiens; 48 h treatment; read-out: EC50 of cell death, range over all cancerous cells tested. On the procedure:
(§1) For cytotoxicity assays, cells were seeded in 96-well microplates 24 hours before the addition of increasing concentrations of each compound in the culture medium. Cell viability was analyzed 48 hours following addition of each compound through the monitoring of mitochondrial […] activity using PrestoBlue® Cell Viability Reagent (Invitrogen; #A-13261). Paclitaxel was used as a control which is cytotoxic on various cancerous cells although not on chemoresistant MESSA DX5 lineage.

Data set [2] has as its system CyclinD1 and FAS in PC-3 cells. The data set is described as follows: Protein expression by immunoblot, PC-3. It is filed as cell-based, human. To be noted: dose and time dependent; 6 h or 24 h; FIG. 6. On the procedure:
In FIG. 6B and FIG. 6D, LNCaP cells were treated with dihydrotestosterone (DHT) to induce hormonal dependent FAS expression. Actin or Tubulin (Tub) serve as loading controls. One representative experiment out of three is presented.
Cells were treated by either DMSO (0.5%) or increasing doses of the selected molecules from 1 μM to 10 μM over 6 to 24 hours as indicated. Cell lysates were analyzed by immunoblotting following standard procedure using primary antibodies from Cell Signaling: anti-total P53 (#9282), anti-phosphoP53 Kit (#9919), anti-cyclinD1 (#2926), anti-FAS (#3189), anti EGFR (#4267), anti-Phospho (tyr1068) EGFR (#2234), anti Met (#4560), anti-Akt (#9272), anti Phospho(Ser473)-Akt (#9271) or anti-Myc (Santa Cruz Technology #Sc-40). Tubulin was detected using anti α-tubulin primary antibody (in-house: the polyclonal Glu-tubulin antibody (L4) is available commercially from Abcys (Paris, France)). HRP-coupled anti-rabbit (#A6154) and anti-mouse (#A4416) secondary antibodies were purchased from Sigma. HRP activity was detected through HRP chemoluminescence detection reagent (Millipore, #WBLUF0100). Apoptotic cell death induction was observed through the observation of PARP cleavage using anti-PARP primary antibodies anti-PARP (46D11) (#9532). Positive control was Epotoside at 50 μM or 100 μM, a known drug inducing cancerous cell death by apoptosis.

The test system of data set [3] is Gefitinib-resistant clone H1975. Nature of the data set: Cell growth inhibition and cell death induction (Incucyte), H1975. Conditions: 72 hours, FIG. 12A,B. It is filed as cell-based, human. An excerpt: (§2) FIG. 12: The cell growth inhibition and cell death induction of non-small cell lung cancers (NSCLC), HCC827 cells and derivative Gefitinib-resistant clone H1975 (FIG. 12 A,B) and of PC-3 (FIG. 12 C,D) and LnCAP (FIG. 12 E,F) were monitored using Incucyte microscope. Histogram represent in A,C,E: the final cell area relative to the total well area in (%) and in B,D,F: the fluorescent area in μm2. Error bars indicate standard deviation between 6 technical replicates.
(§3) The cell growth inhibition and cell death induction of non-small cell lung cancers (NSCLC), HCC827 cells and derivative Gefitinib-resistant clone H1975 were monitored during a period of 72 hours using Incucyte microscope and dedicated programs allowing to monitor cell confluency (i.e.: cell surface area relative to total well surface) and cell death induction by adding Propidium Iodide (PI) at 1 μg/ml (Sigma Aldrich #P4864) in the culture medium.

For data set [4], the system named is EGFR, P-EGFR, Met, P-Akt in HCC827 cells. Nature of the data set: Protein expression by immunoblot, HCC827. It is filed as cell-based, human. To be noted: 6 hours; dose dependent; FIG. 10. On the procedure:
Tubulin (Tub) serve as loading controls. One representative experiment out of two is presented.
Cells were treated by either DMSO (0.5%) or increasing doses of the selected molecules from 1 μM to 10 μM over 6 to 24 hours as indicated. […] Tubulin was detected using anti α-tubulin primary antibody (in-house: the polyclonal Glu-tubulin antibody (L4) is available commercially from Abcys (Paris, France)). HRP-coupled anti-rabbit (#A6154) and anti-mouse (#A4416) secondary antibodies were purchased from Sigma. HRP activity was detected through HRP chemoluminescence detection reagent (Millipore, #WBLUF0100). […] Positive control was Epotoside at 50 μM or 100 μM, a known drug inducing cancerous cell death by apoptosis.

The test system of data set [5] is MDA-MB231 triple negative breast cancer cells. Nature of the data set: Wounding assay, MDA-MB231. It is filed as cell-based. Conditions: from 1 μM concentration; mitomycine 2 μg/ml; 24 hours. The protocol: In addition the migratory capacity of two additional triple negative breast cancer cells lines: the metastatic MDA-MB231 and BT-549 showing high migratory capacity was analyzed in a classical wound assay.
BT-549, MDA-MB231 cell lines were issued from the American Type Culture Collection (ATCC). For wounding assays, cells were seeded in 24-well microplates (Culture Insert 21, ref 250210, Ibidi®). […] Cell spreading was then visualized during 24 hours by videomicroscopy (1 acquisition each 30 min). A representative picture of 3 is presented at 0 and 12 hours of drug treatment out. In Graphs, curves represents the empty surface (devoid of cells) between the two cell layers (delimited by using Image J software).

Data set [6] deals with HCC827 cells. Nature of the data set: Cell growth inhibition and cell death induction (Incucyte), HCC827. The class given is cell-based, human. Conditions: 72 hours, FIG. 12A,B.
From the text: as §2, §3

Data set [7] addresses USP8-FL (Homo sapiens, UniProt P40818). Nature of the data set: biochemical.
A short description of data set [8]: Metabolic stability on mouse liver microsomes. To be noted: 0.5 μM, up to 30 min; for cofactors (CYP)-mediated metabolism, mouse: with cofactors; for metabolism in the absence of cofactors, mouse: without cofactors. The class given is in vitro ADME. The protocol:
(§4) Each compound was incubated either with cofactors (n=2) or without cofactors (n=1). Positive controls were: Diclofenac, Midazolam and Amitriptyline.

Data set [9] is described as follows: Metabolic stability on human liver microsomes. It is filed as in vitro ADME. Conditions: 0.5 μM, up to 30 min; for cofactors (CYP)-mediated metabolism, human: with cofactors; for metabolism in the absence of cofactors, human: without cofactors. The protocol: as §4
Data set [10] concerns HCT116 cells. The data set is described as follows: Cytotoxicity assay (PrestoBlue cell viability), HCT116. To be noted: Homo sapiens, HCT-116; 48 hours treatment. The class given is cell-based. On the procedure:
Messa, Messa DX5, HCT116, HEK-293, PC-3, LNCaP, HCC827 and H1975 cell lines are issued from the American Type Culture Collection (ATCC).
Messa, Messa DX5 and HCT116 were maintained in McCoy's supplemented with 10% fetal bovine serum, and 1% penicillin/streptomycin. PC-3, LNCaP cells were maintained in RPMI medium supplemented with 10% fetal bovine serum, and 1% penicilin/streptomycin and in the case of Messa DX5: 500 nM Doxorubicin was added to maintain selection pressure. HEK293 were maintained in DMEM medium supplemented with 10% fetal bovine serum, and 1% penicillin/streptomycin. Cells were maintained at 37° C. with 5% CO2, 95% air, and humid atmosphere. In the case of hormonal dependent LNCaP cells, 2 μM DiHydroTestosterone (DHT) was added or not—depending on the type of biological assay—for the same incubation period as compounds.
as §1

Chain of USP8-FL (P40818 whole entry): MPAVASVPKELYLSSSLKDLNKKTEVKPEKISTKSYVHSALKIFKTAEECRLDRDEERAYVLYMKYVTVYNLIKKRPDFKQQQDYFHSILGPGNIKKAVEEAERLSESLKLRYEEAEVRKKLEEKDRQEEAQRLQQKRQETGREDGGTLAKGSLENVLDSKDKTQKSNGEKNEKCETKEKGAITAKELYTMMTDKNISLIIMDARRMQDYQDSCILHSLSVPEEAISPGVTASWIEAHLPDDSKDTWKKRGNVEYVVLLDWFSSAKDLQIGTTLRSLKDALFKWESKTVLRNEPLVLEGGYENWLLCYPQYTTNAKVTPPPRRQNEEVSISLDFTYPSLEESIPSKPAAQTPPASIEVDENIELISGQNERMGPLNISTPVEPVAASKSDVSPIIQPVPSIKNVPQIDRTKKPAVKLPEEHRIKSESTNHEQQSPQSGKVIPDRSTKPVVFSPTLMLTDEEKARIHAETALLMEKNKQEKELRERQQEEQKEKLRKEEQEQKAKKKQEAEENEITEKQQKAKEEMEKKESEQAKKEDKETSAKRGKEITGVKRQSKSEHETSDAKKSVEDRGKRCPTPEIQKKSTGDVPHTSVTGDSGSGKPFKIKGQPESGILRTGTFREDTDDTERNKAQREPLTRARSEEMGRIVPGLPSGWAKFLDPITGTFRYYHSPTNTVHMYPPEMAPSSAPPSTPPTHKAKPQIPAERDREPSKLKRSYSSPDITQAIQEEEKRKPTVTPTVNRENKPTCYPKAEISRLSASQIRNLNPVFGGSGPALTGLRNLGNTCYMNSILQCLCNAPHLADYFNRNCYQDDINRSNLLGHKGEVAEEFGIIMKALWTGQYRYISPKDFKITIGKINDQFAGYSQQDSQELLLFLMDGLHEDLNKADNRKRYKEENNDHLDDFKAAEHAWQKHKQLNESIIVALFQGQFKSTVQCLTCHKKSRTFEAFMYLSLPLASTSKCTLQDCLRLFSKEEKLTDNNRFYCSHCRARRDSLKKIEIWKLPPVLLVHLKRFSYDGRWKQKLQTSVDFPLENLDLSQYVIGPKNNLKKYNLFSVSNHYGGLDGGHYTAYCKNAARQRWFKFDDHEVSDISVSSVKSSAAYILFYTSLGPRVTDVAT

As for `CCCCS(=O)(=O)Cc1nc2c(nc1CS(=O)(=O)CCCC)C(=O)c1ccccc1C2=O` [PCR6236], the EC50 in [1] was 1000 to 3500 nM. Further, in [2], the “expression level of CyclinD1, PC-3” value is given as “strongly decreased” and the “expression level of FAS, PC-3” value is reported as “strongly decreased”. Moreover, the “cell growth inhibition and cell death induction, H1975” value in [3] was “inhibit cell growth and induce cell death in a dose dependent manner”. For the same compound, in [4], the “Akt phosphorylation, HCC827” value is recorded as “prevents Akt phosphorylation”; the “EGFR degradation, HCC827” value is “EGFR and Met degradation”; the “EGFR phosphorylation, HCC827” value is reported as “induces EGFR phosphorylation”; the “Met degradation, HCC827” value was “EGFR and Met degradation”. For the same compound, in data set [5], the “cell migration in wounding assay, MDA-MB231” value was “prevents triple negative breast cancer cell migration”. For the same compound, the “cell growth inhibition and cell death induction, HCC827” value in [6] is “inhibit cell growth and induce cell death in a dose dependent manner”. Also, in [7], the half-maximal inhibitory concentration (IC50) was under 30 nM. In data set [8], the “cofactors (CYP)-mediated metabolism, mouse” value was “high” and the “metabolism in the absence of cofactors, mouse” value is “No metabolism was observed”. Further, in [9], the “cofactors (CYP)-mediated metabolism, human” value is recorded as “low” and the “metabolism in the absence of cofactors, human” value is “No metabolism was observed”. Moreover, in [10], the 50% effective concentration (EC50) is 1300 nM.
Regarding `CCCCS(=O)(=O)Cc1nc2c(o1)C(=O)c1ccccc1C2=O` [PCR9301], the EC50 in data set [1] fell in the range of 1000 to 3500 nM. The “cell growth inhibition and cell death induction, H1975” value in data set [3] was “inhibit cell growth and induce cell death in a dose dependent manner”. The “cell growth inhibition and cell death induction, HCC827” value in data set [6] is “inhibit cell growth and induce cell death in a dose dependent manner”. Further, in data set [8], the “cofactors (CYP)-mediated metabolism, mouse” value is given as “not or poorly metabolized” and the “metabolism in the absence of cofactors, mouse” value was “No metabolism was observed”. In [9], the “cofactors (CYP)-mediated metabolism, human” value is “not or poorly metabolized” and the “metabolism in the absence of cofactors, human” value is listed as “No metabolism was observed”. Moreover, it took 1700 nM to reach a half-maximal effect in data set [10] (EC50).
